Publication PMC5478857, “Metabolic Products of Linalool and Modulation of GABAA Receptors” (Frontiers in Chemistry, 2017)

Tested on: T1, GABAA receptor α1β2γ2
T1 construct: gene GABRA1; α1β2γ2 heteromer transiently expressed in HEK293 cells; with GABAA receptor β2 and γ2 subunits
Test: whole-cell patch clamp, […] co-applied with […] GABA ([…] of GABA current, P < […])
Type: cell-based

In the case of `C=CC(C)(O)CCC=C(C)C` (stereo not shown) [Linalool, 3,7-dimethyl-1,6-octadiene-3-ol], the “% of GABA current at 2 mM” value is reported as 160 ± 14 % of GABA current at 2 mM.
